Laboratory results from patent US8557804B2, “Nicotinic receptor agonists for the treatment of inflammatory diseases” (priority 2002, dated 2013).

What was measured:
[1] = tested on: collagen 1A mRNA expression by normal human lung fibroblasts; assay: Collagen A1 gene expression by RT-PCR in primary normal lung fibroblasts; format: cell-based; conditions: primary normal fibroblasts, RT-PCR
Experimental: Asthma is characterized by airway structural changes, including sub-epithelial collagen deposition, that may be a cause for the chronicity of the disease. An imbalance between collagen synthesis and its degradation by fibroblasts may be involved in this process (56). In preliminary experiments, we investigated the effects of nicotinic agonists on collagen A1 synthesis produced by primary normal fibroblasts. Collagen A1 gene expression was evaluated by RT-PCR.
The results are expressed percentage gene expression in agonists treated cells compared to non-treated cells.

[2] = tested on: SR-induced inflammation in mice; assay: Short term SR-induced acute lung inflammation in mice, BAL cells; format: in vivo
Source text: The Intranasal instillation of Saccharopolyspora rectivirgula (SR) antigens, the causative agent for farmer's lung, to mice, induces a prominent inflammatory response in the lung. Neutrophils are the first inflammatory cells recruited at the site of inflammation.

[3] = tested on: mouse tracheal airway smooth muscle; assay: Isometric study on isolated mouse tracheas pre-contracted with metacholine; conditions: cumulative doses, metacholine 10^−5
Experimental: Tracheal rings were mounted isometrically to force transducers in organ baths containing Krebs bicarbonate solution at 37° C. and bubbled with 95% O2-5% CO2, pre-contracted with submaximal concentration of metacholine (10^−5) and cumulative doses of the analogs were added to the baths. Changes of tension are recorded. Results are expressed as a percentage of maximal contraction (FIG. 29).
As described previously, tracheal or bronchial rings were mounted isometrically to force transducers in organ baths containing Krebs bicarbonate solution at 37° C. and bubbled with 95% O2-5% CO2, pre-contracted with submaximal concentration of metacholine cumulative doses of ASM-002 added. Changes of tension are recorded. Results are expressed as a percentage of maximal contraction for mouse (FIG. 34, p=0.002), dog (FIG. 35, p=0.004) and human (FIG. 36)

C[N+]1(C)CCN(c2ccccc2)CC1 [DMPP, Dimethylphenylpiperazinium]
collagen A1 gene expression [1]: inhibits collagen A1 gene expression in a dose-dependent manner
effect on SR-induced inflammation (BAL cells) ([2]; intra-nasal every 6 h, 24 h after SR, DMPP 0.5 mg/kg, nicotine 0.5 mg/kg, epibatidine 2 μg/kg): marked inhibitory effect
effect on SR-induced lung inflammation compared to the non-treated group ([2]; number of mice increased to 15): significant inhibition
relaxation of tracheal smooth muscles pre-contracted with metacholine [3]: dose dependant relaxation
